Patent US8710065B2, “Tricyclic inhibitors of kinases” (AbbVie Inc., priority 2011, dated 2014)

Molecular target: T1, GST-tagged-Wee1 kinase (Homo sapiens, UniProt P30291)
T1 construct: purchased Carnabio (Carna Biosciences) 05-177
Assay: Wee1 time-resolved fluorescence equilibrium binding assay (displacement of Oregon Green-labeled ATP-competitive kinase probe)
Conditions: for Ki: read-out: Wee-1 inhibition (Ki)
Outline: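 Time-resolved fluorescence equilibrium binding with GST-Wee1, measuring displacement of a rapidly reversible Oregon Green-labelled ATP-competitive probe by competitive inhibitors; values reported as Ki.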

T1 sequence (P30291 whole entry): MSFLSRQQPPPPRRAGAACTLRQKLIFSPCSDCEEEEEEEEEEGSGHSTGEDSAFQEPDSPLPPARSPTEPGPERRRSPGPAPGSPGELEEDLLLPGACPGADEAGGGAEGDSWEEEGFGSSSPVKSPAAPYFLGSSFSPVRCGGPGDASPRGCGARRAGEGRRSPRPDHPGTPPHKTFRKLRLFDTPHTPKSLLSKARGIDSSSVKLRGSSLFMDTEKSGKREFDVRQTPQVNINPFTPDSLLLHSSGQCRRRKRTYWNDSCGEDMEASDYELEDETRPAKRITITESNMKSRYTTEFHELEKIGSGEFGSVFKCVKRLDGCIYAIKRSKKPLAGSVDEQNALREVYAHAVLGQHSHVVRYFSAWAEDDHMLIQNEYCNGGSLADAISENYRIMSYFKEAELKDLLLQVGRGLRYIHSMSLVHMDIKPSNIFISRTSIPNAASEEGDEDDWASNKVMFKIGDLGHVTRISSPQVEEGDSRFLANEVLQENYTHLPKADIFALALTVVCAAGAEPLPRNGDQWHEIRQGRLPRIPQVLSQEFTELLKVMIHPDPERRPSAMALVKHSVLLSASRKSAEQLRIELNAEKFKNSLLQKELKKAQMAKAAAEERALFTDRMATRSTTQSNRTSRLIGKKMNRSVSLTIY

Ki [nM] | Structure (SMILES) | Kd [nM]
10 to 100 | C[C@@H]1CCCN1CCc1ccc(Nc2ncc3c(=O)n(-c4ccccc4Cl)c4nccn4c3n2)cc1 [Example 359, 6-(2-chlorophenyl)-2-[(4-{2-[(2R)-2-methylpyrrolidin-1-yl]ethyl}phenyl)amino]imidazo[1,2-a]pyrimido[5,4-e]pyrimidin-5(6H)-one] | –
10 to 100 | O=c1c2cnc(Nc3ccc(-c4csc(N5CCOCC5)n4)cc3)nc2n2ccnc2n1-c1ccccc1Cl [Example 360, 6-(2-chlorophenyl)-2-({4-[2-(morpholin-4-yl)-1,3-thiazol-4-yl]phenyl}amino)imidazo[1,2-a]pyrimido[5,4-e]pyrimidin-5(6H)-one] | –
10 to 100 | Cc1ccc2nc(CCc3ccc(Nc4ncc5c(=O)n(-c6ccccc6Cl)c6nccn6c5n4)cc3)ccc2c1 [Example 361, 6-(2-chlorophenyl)-2-({4-[2-(6-methylquinolin-2-yl)ethyl]phenyl}amino)imidazo[1,2-a]pyrimido[5,4-e]pyrimidin-5(6H)-one] | –
– | O=C(NCCOCCOCCN1CCN(c2ccc(-c3cc4c(-c5cnc(C6(O)CCC6)s5)c(Cl)cnc4[nH]3)cc2)CC1)c1ccc2c(c1)C(=O)OC21c2cc(F)c(O)cc2Oc2cc(O)c(F)cc21 [fluorescent probe, N-(2-(2-(2-(4-(4-(5-chloro-4-(2-(1-hydroxycyclobutyl)thiazol-5-yl)-1H-pyrrolo[2,3-b]pyridin-2-yl)phenyl)piperazin-1-yl)ethoxy)ethoxy)ethyl)-2′,7′-difluoro-3′,6′-dihydroxy-3-oxo-3H-spiro[isobenzofuran-1,9′-xanthene]-5-carboxamide, reference compound] | 137
